Assay results reported in PMC9632241 (Antiviral Research, 2022).

Target: SARS-CoV-1 M^pro (Severe acute respiratory syndrome-related coronavirus, UniProt P0C6U8)
Test: biochemical

SMILES: CCOC(=O)/C=C/[C@H](C[C@@H]1CCNC1=O)NC(=O)[C@@H](CC(=O)[C@@H](NC(=O)c1cc(C)on1)C(C)C)Cc1ccc(F)cc1 [rupintrivir, 4-{2-(4-fluoro-benzyl)-6-methyl-5-[(5-methyl-isoxazole-3-carbonil)-amino]-4-oxo-heptanoylamino}-5-(2-oxo-pyrrolidin-3-yl)-pentanoicacidethylester]
- IC50: 66 µM
